In assay [1] the test system is PMA-induced cell proliferation in mouse ear epidermis. The assay can be described thus: Mouse ear cell proliferation assay (IUdR incorporation, PCNA histology). The class given is in vivo. The following applies: +PMA 4 μg/ear; scytonemin 1 mg/ear, dexamethasone 0.15 mg/ear. On the procedure: To determine the efficacy of scytonemin as an anti-proliferative agent in vivo, the following assay was conducted. On day one, test compounds were delivered in 10 μl 20% DMSO, 80% acetone and applied to both the inner and outer pinnae of left ears (20 μl total) of male, Swiss Webster mice (Taconic Farms, Germantown, N.Y.). The right ears received only vehicle. One hour post test compound application, 4 μg/ear PMA (Sigma, St. Louis, Mo.) in 10 μl acetone was applied to the inner pinnae of each left ear and 10 μl acetone was applied to each right ear. Four hours post test compound application, the each test compound was again applied in the same manner. On day two, the test compounds were applied twice with a four-hour interval between each application. On day three, the test compounds and PMA were applied as they had been on day one.
One hour after the final test compound applications, each mouse was injected with 0.6 ml of a solution containing the thymidine analogue, 5-iodo-I^125-2′-deoxyuridine (IUdR) (2 μCi-I^125/mouse) and, to inhibit the endogenous deoxythymidilic acid synthetase, fluorodeoxyuridine (FUdR) ([…]). This IUdR/FUdR solution was made up in RPMI 1640 media. Eighteen hours post injection, the mice were euthanized via CO2 inhalation, the ears were excised and soaked individually in a 70% EtOH solution overnight.
IUdR incorporation was then measured using a Beckman Gamma counter, Model 5500B. […] Therefore, scytoneman compounds may be used to reduce, prevent, inhibit, modulate, or attenuate cell proliferation.
Additionally, immunostaining with Proliferating Cell Nuclear Antigen (PCNA) was used as a proliferation marker to identify proliferating cells. PCNA is a cofactor for DNAt […]. Expression levels of PCNA fluctuate over the cell cycle. […] Low expression levels of PCNA indicate non-cycling cells.
Histological analysis was used to determine the effect of scytonemin on the thickness of the epidermal layer of skin, the mitotic index of cells in the epidermal layer, the number of cells in the epidermis, and the amount of immune cell infiltration. PCNA antibodies were used to detect the presence of PCNA in cells and a peroxidase-Ni/DAB development system was used to stain PCNA-positive cells black and hematoxlin was used as a nuclear blue counterstain using conventional methods.

The test system of the next assay is Jurkat T cells. In words: Apoptosis assay (TUNEL, flow cytometry). The class given is cell-based. As to conditions: 3 μM, 24 hours. Here is the method:
To determine the mechanism behind the ability of SCY to inhibit cell proliferation, about 2×10^5 Jurkat T cells/ml were treated with vehicle (negative control), 3 μM SCY, or 3 μM camptothecin (positive control) a (0.1% DMSO[final]) and incubated at 37° C., 5% CO2 for 24 hours. As a positive control, camptothecin, a DNA topoisomerase inhibitor, was used because of its ability to arrest Jurkat cells at the G2/M phase of the cell cycle and induce the cells to undergo apoptosis. The cells were fixed in 1% paraformaldehyde, washed once with PBS, and stored in 70% EtOH at−20° C. Apoptosis was measured using the Promega Apoptosis Detection System (Promega, Madison, Wis.) an adapted TUNEL staining method.
The cells were washed two times with 5 ml PBS 2% FBS, then transferred to a microcentrifuge tube in 1 ml PBS, 0.2% Triton×100, 5 mg/ml BSA and incubated on ice for 5 minutes. Samples were spun, PBS solution removed, then resuspended in 80 μl equilibration buffer from Promega kit and incubated at room temperature for 10 minutes. Then the samples were spun and the equilibration buffer removed. A nucleotide mix comprising 45 μl equilibration buffer, 5 μl nucleotide mix, 1 μl Tdt enzyme per sample, was used to resuspend each sample in the dark. The cells were incubated in the dark at 37° C. for 1 hour. The reaction was terminated by the addition of 20 mM EDTA. The samples were washed twice with 1 ml RNAse A and a small aliquot, about 50 μl, was viewed under a microscope. Cells were stained with fluoroscein and then counterstained with propidium iodide and analyzed for DNA content and fragmentation using a Becton-Dickinson FacsSort (Becton-Dickinson, San Jose, Calif.).
On the technique in general: In flow cytometry, cells or beads pass a laser one at a time.

The text below walks through data of patent publication US6495588B2, “Scytonemin and methods of using thereof” (The Regents of the University of California, priority 2000, dated 2002).

Regarding `C[C@@H]1C[C@H]2[C@@H]3CCC4=CC(=O)C=C[C@]4(C)[C@@]3(F)[C@@H](O)C[C@]2(C)[C@@]1(O)C(=O)CO` [dexamethasone, reference compound], in assay [1], the “cells actively proliferating (PCNA staining)” value is on record as “about 60%”.
Regarding `CC[C@@]1(O)C(=O)OCc2c1cc1n(c2=O)Cc2cc3ccccc3nc2-1` [camptothecin, reference compound], in the assay with Jurkat T cells, the “cells induced to undergo apoptosis” value was found to be 71% and the “effect on cell cycle progression” value is on record as “arrested the cells at G2/M phase”.
